# Reference: ChEMBL document CHEMBL3885881, “DrugMatrix”
# Species on record: Rattus norvegicus
# Experiment: DrugMatrix - Regimen: Daily Repeat
# Type: toxicity, organism-based, Sprague-Dawley
# Set-up: regimen Daily Repeat, gender Male, age 6-8 weeks
# Conditions: in vivo, iv, vehicle 100 % SALINE; for ABSOLUTE BASOPHIL / ABSOLUTE EOSINOPHIL / ABSOLUTE LYMPHOCYTE / ABSOLUTE MONOCYTE / ABSOLUTE SEGMENTED NEUTROPHIL / BASOPHIL / EOSINOPHIL / ERYTHROCYTE COUNT / HEMATOCRIT / HEMOGLOBIN / LEUKOCYTE COUNT / LYMPHOCYTE / MEAN CORPUSCULAR HEMOGLOBIN / MEAN CORPUSCULAR HEMOGLOBIN CONCENTRATION / MEAN CORPUSCULAR VOLUME / MONOCYTE / NEUTROPHIL / NUCLEATED RED BLOOD CELLS / PLATELET COUNT: tissue Blood; for ALANINE AMINOTRANSFERASE / ALBUMIN / ALKALINE PHOSPHATASE / ASPARTATE AMINOTRANSFERASE / BLOOD UREA NITROGEN / CARBON DIOXIDE / CHLORIDE / CHOLESTEROL / CREATINE PHOSPHOKINASE / CREATININE / GLUCOSE / LACTATE DEHYDROGENASE / LIPASE / PHOSPHORUS / POTASSIUM / SODIUM / TOTAL BILIRUBIN / TOTAL PROTEIN / URIC ACID: tissue Plasma
# [1] = 0.07 mg/kg, 72 h, dose level Low, time 3 day
# [2] = 0.07 mg/kg, 120 h, dose level Low, time 5 day
# [3] = […], 72 h, dose 0.16 mg/Kg, dose level High, time 3 day
# [4] = […], 120 h, dose 0.16 mg/Kg, dose level High, time 5 day
structure (smiles),measurement,setting,value
CNC(=O)Oc1ccc2c(c1)[C@]1(C)CCN(C)[C@@H]1N2C [PHYSOSTIGMINE],ABSOLUTE BASOPHIL,[1],0 CELLS/uL
same,ABSOLUTE EOSINOPHIL,[1],271.33 CELLS/uL
same,ABSOLUTE LYMPHOCYTE,[1],11715.67 CELLS/uL
same,ABSOLUTE MONOCYTE,[1],88.33 CELLS/uL
same,ABSOLUTE SEGMENTED NEUTROPHIL,[1],1491.33 CELLS/uL
same,BASOPHIL,[1],0%
same,EOSINOPHIL,[1],2%
same,ERYTHROCYTE COUNT,[1],5.08 x10E6/uL
same,HEMATOCRIT,[1],32.57%
same,HEMOGLOBIN,[1],12.27 G/DL
same,LEUKOCYTE COUNT,[1],13.57 x10E3/uL
same,LYMPHOCYTE,[1],86.67%
same,MEAN CORPUSCULAR HEMOGLOBIN,[1],24.13 pg
same,MEAN CORPUSCULAR HEMOGLOBIN CONCENTRATION,[1],37.67 G/DL
same,MEAN CORPUSCULAR VOLUME,[1],64.1 fL
same,MONOCYTE,[1],0.67%
same,NEUTROPHIL,[1],10.67%
same,NUCLEATED RED BLOOD CELLS,[1],0 /100WBC
same,PLATELET COUNT,[1],1091 x10E3/uL
same,ALANINE AMINOTRANSFERASE,[1],64.33 u/L
same,ALBUMIN,[1],4.03 G/DL
same,ALKALINE PHOSPHATASE,[1],342.67 u/L
same,ASPARTATE AMINOTRANSFERASE,[1],99.67 u/L
same,BLOOD UREA NITROGEN,[1],14.67 mg/dL
same,CARBON DIOXIDE,[1],24.67 mmol/L
same,CHLORIDE,[1],105.33 MEQ/L
same,CHOLESTEROL,[1],67.33 mg/dL
same,CREATINE PHOSPHOKINASE,[1],386 u/L
same,CREATININE,[1],0.14 mg/dL
same,GLUCOSE,[1],161.67 mg/dL
same,LACTATE DEHYDROGENASE,[1],95.33 u/L
same,LIPASE,[1],7.67 u/L
same,PHOSPHORUS,[1],12.37 mg/dL
same,POTASSIUM,[1],5.92 MEQ/L
same,SODIUM,[1],144.47 MEQ/L
same,TOTAL BILIRUBIN,[1],0.17 mg/dL
same,TOTAL PROTEIN,[1],5.73 G/DL
same,URIC ACID,[1],1.23 mg/dL
same,ABSOLUTE BASOPHIL,[2],0 CELLS/uL
same,ABSOLUTE EOSINOPHIL,[2],138.33 CELLS/uL
same,ABSOLUTE LYMPHOCYTE,[2],16178.33 CELLS/uL
same,ABSOLUTE MONOCYTE,[2],247.67 CELLS/uL
same,ABSOLUTE SEGMENTED NEUTROPHIL,[2],2735.67 CELLS/uL
same,BASOPHIL,[2],0%
same,EOSINOPHIL,[2],0.67%
same,ERYTHROCYTE COUNT,[2],5.42 x10E6/uL
same,HEMATOCRIT,[2],34.33%
same,HEMOGLOBIN,[2],13.27 G/DL
same,LEUKOCYTE COUNT,[2],19.3 x10E3/uL
same,LYMPHOCYTE,[2],84%
same,MEAN CORPUSCULAR HEMOGLOBIN,[2],24.43 pg
same,MEAN CORPUSCULAR HEMOGLOBIN CONCENTRATION,[2],38.7 G/DL
same,MEAN CORPUSCULAR VOLUME,[2],63.27 fL
same,MONOCYTE,[2],1.33%
same,NEUTROPHIL,[2],14%
same,NUCLEATED RED BLOOD CELLS,[2],0 /100WBC
same,PLATELET COUNT,[2],1244.33 x10E3/uL
same,ALANINE AMINOTRANSFERASE,[2],50 u/L
same,ALBUMIN,[2],4.33 G/DL
same,ALKALINE PHOSPHATASE,[2],370 u/L
same,ASPARTATE AMINOTRANSFERASE,[2],86.67 u/L
same,BLOOD UREA NITROGEN,[2],22 mg/dL
same,CARBON DIOXIDE,[2],24 mmol/L
same,CHLORIDE,[2],102 MEQ/L
same,CHOLESTEROL,[2],62.33 mg/dL
same,CREATINE PHOSPHOKINASE,[2],479.33 u/L
same,CREATININE,[2],0.2 mg/dL
same,GLUCOSE,[2],168 mg/dL
same,LACTATE DEHYDROGENASE,[2],93.67 u/L
same,LIPASE,[2],8 u/L
same,PHOSPHORUS,[2],13.33 mg/dL
same,POTASSIUM,[2],6.49 MEQ/L
same,SODIUM,[2],141.5 MEQ/L
same,TOTAL BILIRUBIN,[2],0.2 mg/dL
same,TOTAL PROTEIN,[2],6.17 G/DL
same,URIC ACID,[2],1.63 mg/dL
same,ABSOLUTE BASOPHIL,[3],0 CELLS/uL
same,ABSOLUTE EOSINOPHIL,[3],107 CELLS/uL
same,ABSOLUTE LYMPHOCYTE,[3],10987.67 CELLS/uL
same,ABSOLUTE MONOCYTE,[3],71.33 CELLS/uL
same,ABSOLUTE SEGMENTED NEUTROPHIL,[3],1134 CELLS/uL
same,BASOPHIL,[3],0%
same,EOSINOPHIL,[3],1%
same,ERYTHROCYTE COUNT,[3],5.42 x10E6/uL
same,HEMATOCRIT,[3],33.77%
same,HEMOGLOBIN,[3],13 G/DL
same,LEUKOCYTE COUNT,[3],12.3 x10E3/uL
same,LYMPHOCYTE,[3],88.33%
same,MEAN CORPUSCULAR HEMOGLOBIN,[3],24.03 pg
same,MEAN CORPUSCULAR HEMOGLOBIN CONCENTRATION,[3],38.57 G/DL
same,MEAN CORPUSCULAR VOLUME,[3],62.37 fL
same,MONOCYTE,[3],0.67%
same,NEUTROPHIL,[3],10%
same,NUCLEATED RED BLOOD CELLS,[3],0 /100WBC
same,PLATELET COUNT,[3],1231 x10E3/uL
same,ALANINE AMINOTRANSFERASE,[3],56.33 u/L
same,ALBUMIN,[3],4.17 G/DL
same,ALKALINE PHOSPHATASE,[3],305 u/L
same,ASPARTATE AMINOTRANSFERASE,[3],87.33 u/L
same,BLOOD UREA NITROGEN,[3],15.33 mg/dL
same,CARBON DIOXIDE,[3],27.67 mmol/L
same,CHLORIDE,[3],107 MEQ/L
same,CHOLESTEROL,[3],78.67 mg/dL
same,CREATINE PHOSPHOKINASE,[3],187.33 u/L
same,CREATININE,[3],0.13 mg/dL
same,GLUCOSE,[3],159.33 mg/dL
same,LACTATE DEHYDROGENASE,[3],115.33 u/L
same,LIPASE,[3],8.67 u/L
same,PHOSPHORUS,[3],13.93 mg/dL
same,POTASSIUM,[3],6.15 MEQ/L
same,SODIUM,[3],147.9 MEQ/L
same,TOTAL BILIRUBIN,[3],0.17 mg/dL
same,TOTAL PROTEIN,[3],5.83 G/DL
same,URIC ACID,[3],1.43 mg/dL
same,ABSOLUTE BASOPHIL,[4],0 CELLS/uL
same,ABSOLUTE EOSINOPHIL,[4],171.67 CELLS/uL
same,ABSOLUTE LYMPHOCYTE,[4],8706.33 CELLS/uL
same,ABSOLUTE MONOCYTE,[4],43.33 CELLS/uL
same,ABSOLUTE SEGMENTED NEUTROPHIL,[4],3645.33 CELLS/uL
same,BASOPHIL,[4],0%
same,EOSINOPHIL,[4],1.33%
same,ERYTHROCYTE COUNT,[4],5.7 x10E6/uL
same,HEMATOCRIT,[4],35.8%
same,HEMOGLOBIN,[4],13.57 G/DL
same,LEUKOCYTE COUNT,[4],12.57 x10E3/uL
same,LYMPHOCYTE,[4],68.67%
same,MEAN CORPUSCULAR HEMOGLOBIN,[4],23.8 pg
same,MEAN CORPUSCULAR HEMOGLOBIN CONCENTRATION,[4],37.9 G/DL
same,MEAN CORPUSCULAR VOLUME,[4],62.8 fL
same,MONOCYTE,[4],0.33%
same,NEUTROPHIL,[4],29.67%
same,NUCLEATED RED BLOOD CELLS,[4],0 /100WBC
same,PLATELET COUNT,[4],1062 x10E3/uL
same,ALANINE AMINOTRANSFERASE,[4],52.67 u/L
same,ALBUMIN,[4],4.03 G/DL
same,ALKALINE PHOSPHATASE,[4],416.33 u/L
same,ASPARTATE AMINOTRANSFERASE,[4],80 u/L
same,BLOOD UREA NITROGEN,[4],15 mg/dL
same,CARBON DIOXIDE,[4],26 mmol/L
same,CHLORIDE,[4],104 MEQ/L
same,CHOLESTEROL,[4],60 mg/dL
same,CREATINE PHOSPHOKINASE,[4],226.67 u/L
same,CREATININE,[4],0.22 mg/dL
same,GLUCOSE,[4],181 mg/dL
same,LACTATE DEHYDROGENASE,[4],200 u/L
same,LIPASE,[4],7.67 u/L
same,PHOSPHORUS,[4],13.3 mg/dL
same,POTASSIUM,[4],6.09 MEQ/L
same,SODIUM,[4],146.53 MEQ/L
same,TOTAL BILIRUBIN,[4],0.13 mg/dL
same,TOTAL PROTEIN,[4],6.43 G/DL
same,URIC ACID,[4],1.77 mg/dL
